Data reported in paper PMC11213733, “Computational approaches identify a transcriptomic fingerprint of drug-induced structural cardiotoxicity” (Cell Biology and Toxicology, 2024).
Like-named read-outs stand apart in the source and are kept apart here.

What was measured:
cardiac microtissues [1] = test: Ingenuity Pathway Analysis over-representation of differentially expressed genes (activation Z-score); assay type: cell-based, human; settings: 48hr high; Group 2
cardiac microtissues [2] = test: Targeted qRT-PCR of ATAD3C, CDH13, IL6, PTX3, SLC7A5, UCHL1 in cardiac microtissues; assay type: cell-based, human; settings: Sorafenib 3.74 µM, Sunitinib 3.53 µM, Dasatinib 10.8 µM; for activity at 10.8 µM: Homo sapiens, read-out: % of control
Protocol: The experiment was performed with three technical replicates across 1-2 independent replicates.

[3] = ref FDA label, cited from earlier work
cardiac microtissues [4] = test: Transcriptomic profiling (mRNA-seq) and DESeq2 differential gene expression analysis in cardiac microtissues; settings: absolute log2(Fold-Change) > 1, FDR p ≤ 0.05

Cc1nc(Nc2ncc(C(=O)Nc3c(C)cccc3Cl)s2)cc(N2CCN(CCO)CC2)n1 [Dasatinib]
activation Z-score: Actin Cytoskeleton Signaling (cardiac microtissues [1]): -2.887 | activation Z-score: Actin Nucleation by ARP-WASP Complex (cardiac microtissues [1]): -2.449 | activation Z-score: Acute Phase Response Signaling (cardiac microtissues [1]): -2.828 | activation Z-score: Adrenomedullin signaling pathway (cardiac microtissues [1]): -0.535 | activation Z-score: Apelin Cardiac Fibroblast Signaling Pathway (cardiac microtissues [1]): 2.449 | activation Z-score: Apelin Liver Signaling Pathway (cardiac microtissues [1]): -2.449 | activation Z-score: Aryl Hydrocarbon Receptor Signaling (cardiac microtissues [1]): -2.333 | activation Z-score: Breast Cancer Regulation by Stathmin1 (cardiac microtissues [1]): -3.363 | activation Z-score: CLEAR Signaling Pathway (cardiac microtissues [1]): 2.5 | activation Z-score: Cardiac Hypertrophy Signaling (Enhanced) (cardiac microtissues [1]): -3.889 | activation Z-score: Colorectal Cancer Metastasis Signaling (cardiac microtissues [1]): -3.5 | activation Z-score: Cyclins and Cell Cycle Regulation (cardiac microtissues [1]): 1 | activation Z-score: ERK5 Signaling (cardiac microtissues [1]): -2.646 | activation Z-score: Endothelin-1 Signaling (cardiac microtissues [1]): -1.604 | activation Z-score: G-Protein Coupled Receptor Signaling (cardiac microtissues [1]): -1.571 | activation Z-score: GP6 Signaling Pathway (cardiac microtissues [1]): -3.742 | activation Z-score: Glioblastoma Multiforme Signaling (cardiac microtissues [1]): -2.111 | activation Z-score: HGF Signaling (cardiac microtissues [1]): -1.89 | activation Z-score: HIF1Î± Signaling (cardiac microtissues [1]): -2.673 | activation Z-score: HMGB1 Signaling (cardiac microtissues [1]): -3.3 | activation Z-score: Hepatic Fibrosis Signaling Pathway (cardiac microtissues [1]): -6.008 | activation Z-score: IL-6 Signaling (cardiac microtissues [1]): -3.3 | activation Z-score: IL-8 Signaling (cardiac microtissues [1]): -2.84 | activation Z-score: IL-13 Signaling Pathway (cardiac microtissues [1]): -1.897 | activation Z-score: IL-15 Production (cardiac microtissues [1]): -1.897 | activation Z-score: ILK Signaling (cardiac microtissues [1]): -3.207 | activation Z-score: Immunogenic Cell Death Signaling Pathway (cardiac microtissues [1]): -2.828 | activation Z-score: Integrin Signaling (cardiac microtissues [1]): -3.357 | activation Z-score: Intrinsic Prothrombin Activation Pathway (cardiac microtissues [1]): -2.236 | activation Z-score: LXR/RXR Activation (cardiac microtissues [1]): 3.3 | activation Z-score: Leukocyte Extravasation Signaling (cardiac microtissues [1]): -1.698 | activation Z-score: MIF Regulation of Innate Immunity (cardiac microtissues [1]): -1.633 | activation Z-score: MYC Mediated Apoptosis Signaling (cardiac microtissues [1]): -2.449 | activation Z-score: Macrophage Alternative Activation Signaling Pathway (cardiac microtissues [1]): -0.728 | activation Z-score: Oncostatin M Signaling (cardiac microtissues [1]): -1.342 | activation Z-score: Osteoarthritis Pathway (cardiac microtissues [1]): -2.985 | activation Z-score: Oxytocin Signaling Pathway (cardiac microtissues [1]): -2.4 | activation Z-score: PAK Signaling (cardiac microtissues [1]): -2.449 | activation Z-score: PPAR Signaling (cardiac microtissues [1]): 3.742 | activation Z-score: Production of Nitric Oxide and Reactive Oxygen Species in Macrophages (cardiac microtissues [1]): -2.646 | activation Z-score: Prostanoid Biosynthesis (cardiac microtissues [1]): -1 | activation Z-score: Pulmonary Fibrosis Idiopathic Signaling Pathway (cardiac microtissues [1]): -5.947 | activation Z-score: Pulmonary Healing Signaling Pathway (cardiac microtissues [1]): -2.668 | activation Z-score: RAC Signaling (cardiac microtissues [1]): -2.449 | activation Z-score: RHOGDI Signaling (cardiac microtissues [1]): 2.309 | activation Z-score: Regulation Of The Epithelial Mesenchymal Transition By Growth Factors Pathway (cardiac microtissues [1]): -3.962 | activation Z-score: Regulation of Cellular Mechanics by Calpain Protease (cardiac microtissues [1]): -2 | activation Z-score: Regulation of eIF4 and p70S6K Signaling (cardiac microtissues [1]): -2 | activation Z-score: Renin-Angiotensin Signaling (cardiac microtissues [1]): -2 | activation Z-score: Ribonucleotide Reductase Signaling Pathway (cardiac microtissues [1]): -2.496 | activation Z-score: Role of IL-17F in Allergic Inflammatory Airway Diseases (cardiac microtissues [1]): -2 | activation Z-score: Role of JAK family kinases in IL-6-type Cytokine Signaling (cardiac microtissues [1]): -2.673 | activation Z-score: Role of NFAT in Cardiac Hypertrophy (cardiac microtissues [1]): -2.496 | activation Z-score: STAT3 Pathway (cardiac microtissues [1]): -2.496 | activation Z-score: Senescence Pathway (cardiac microtissues [1]): -2 | activation Z-score: Signaling by Rho Family GTPases (cardiac microtissues [1]): -3.357 | activation Z-score: Superpathway of Cholesterol Biosynthesis (cardiac microtissues [1]): 2 | activation Z-score: TREM1 Signaling (cardiac microtissues [1]): -2.714 | activation Z-score: Type II Diabetes Mellitus Signaling (cardiac microtissues [1]): -2 | activation Z-score: White Adipose Tissue Browning Pathway (cardiac microtissues [1]): -2.111 | activation Z-score: Wound Healing Signaling Pathway (cardiac microtissues [1]): -5 | activity at 10.8 µM (cardiac microtissues [2]; gene ATAD3C, Run 1): 75.7% | activity at 10.8 µM (cardiac microtissues [2]; gene CDH13, Run 1): 46.8% | activity at 10.8 µM (cardiac microtissues [2]; gene CDH13, Run 2): 19.7% | activity at 10.8 µM (cardiac microtissues [2]; gene IL6, Run 1): 10.1% | activity at 10.8 µM (cardiac microtissues [2]; gene PTX3, Run 1): 18.7% | activity at 10.8 µM (cardiac microtissues [2]; gene PTX3, Run 2): 4.94% | activity at 10.8 µM (cardiac microtissues [2]; gene SLC7A5, Run 1): 52.1% | activity at 10.8 µM (cardiac microtissues [2]; gene SLC7A5, Run 2): 26% | activity at 10.8 µM (cardiac microtissues [2]; gene UCHL1, Run 1): 42.1% | activity at 10.8 µM (cardiac microtissues [2]; gene UCHL1, Run 2): 21.3% | 2^-ΔΔCt of Individual reps, Treated 1 (cardiac microtissues [2]; gene ATAD3C, Run 1): 0.8222 | 2^-ΔΔCt of Individual reps, Treated 2 (cardiac microtissues [2]; gene ATAD3C, Run 1): 0.6233 | 2^-ΔΔCt of Individual reps, Treated 3 (cardiac microtissues [2]; gene ATAD3C, Run 1): 0.828 | Average 2^-ΔΔCt, Treated (cardiac microtissues [2]; gene ATAD3C, Run 1): 0.7578 | 2^-ΔΔCt of Individual reps, Treated 1 (cardiac microtissues [2]; gene CDH13, Run 1): 0.4709 | 2^-ΔΔCt of Individual reps, Treated 2 (cardiac microtissues [2]; gene CDH13, Run 1): 0.4361 | 2^-ΔΔCt of Individual reps, Treated 3 (cardiac microtissues [2]; gene CDH13, Run 1): 0.5098 | Average 2^-ΔΔCt, Treated (cardiac microtissues [2]; gene CDH13, Run 1): 0.4723 | 2^-ΔΔCt of Individual reps, Treated 1 (cardiac microtissues [2]; gene CDH13, Run 2): 0.2109 | 2^-ΔΔCt of Individual reps, Treated 2 (cardiac microtissues [2]; gene CDH13, Run 2): 0.2308 | 2^-ΔΔCt of Individual reps, Treated 3 (cardiac microtissues [2]; gene CDH13, Run 2): 0.1575 | Average 2^-ΔΔCt, Treated (cardiac microtissues [2]; gene CDH13, Run 2): 0.1997 | 2^-ΔΔCt of Individual reps, Treated 1 (cardiac microtissues [2]; gene IL6, Run 1): 0.1388 | 2^-ΔΔCt of Individual reps, Treated 2 (cardiac microtissues [2]; gene IL6, Run 1): 0.1078 | 2^-ΔΔCt of Individual reps, Treated 3 (cardiac microtissues [2]; gene IL6, Run 1): 0.05876 | Average 2^-ΔΔCt, Treated (cardiac microtissues [2]; gene IL6, Run 1): 0.1018 | 2^-ΔΔCt of Individual reps, Treated 1 (cardiac microtissues [2]; gene PTX3, Run 1): 0.2236 | 2^-ΔΔCt of Individual reps, Treated 2 (cardiac microtissues [2]; gene PTX3, Run 1): 0.2024 | 2^-ΔΔCt of Individual reps, Treated 3 (cardiac microtissues [2]; gene PTX3, Run 1): 0.143 | Average 2^-ΔΔCt, Treated (cardiac microtissues [2]; gene PTX3, Run 1): 0.1897 | 2^-ΔΔCt of Individual reps, Treated 1 (cardiac microtissues [2]; gene PTX3, Run 2): 0.06731 | 2^-ΔΔCt of Individual reps, Treated 2 (cardiac microtissues [2]; gene PTX3, Run 2): 0.04708 | 2^-ΔΔCt of Individual reps, Treated 3 (cardiac microtissues [2]; gene PTX3, Run 2): 0.03383 | Average 2^-ΔΔCt, Treated (cardiac microtissues [2]; gene PTX3, Run 2): 0.04941 | 2^-ΔΔCt of Individual reps, Treated 1 (cardiac microtissues [2]; gene SLC7A5, Run 1): 0.5311 | 2^-ΔΔCt of Individual reps, Treated 2 (cardiac microtissues [2]; gene SLC7A5, Run 1): 0.5414 | 2^-ΔΔCt of Individual reps, Treated 3 (cardiac microtissues [2]; gene SLC7A5, Run 1): 0.5079 | Average 2^-ΔΔCt, Treated (cardiac microtissues [2]; gene SLC7A5, Run 1): 0.5268 | 2^-ΔΔCt of Individual reps, Treated 1 (cardiac microtissues [2]; gene SLC7A5, Run 2): 0.3467 | 2^-ΔΔCt of Individual reps, Treated 2 (cardiac microtissues [2]; gene SLC7A5, Run 2): 0.2554 | 2^-ΔΔCt of Individual reps, Treated 3 (cardiac microtissues [2]; gene SLC7A5, Run 2): 0.2489 | Average 2^-ΔΔCt, Treated (cardiac microtissues [2]; gene SLC7A5, Run 2): 0.2837 | 2^-ΔΔCt of Individual reps, Treated 1 (cardiac microtissues [2]; gene UCHL1, Run 1): 0.4041 | 2^-ΔΔCt of Individual reps, Treated 2 (cardiac microtissues [2]; gene UCHL1, Run 1): 0.4271 | 2^-ΔΔCt of Individual reps, Treated 3 (cardiac microtissues [2]; gene UCHL1, Run 1): 0.4398 | Average 2^-ΔΔCt, Treated (cardiac microtissues [2]; gene UCHL1, Run 1): 0.4237 | 2^-ΔΔCt of Individual reps, Treated 1 (cardiac microtissues [2]; gene UCHL1, Run 2): 0.202 | 2^-ΔΔCt of Individual reps, Treated 2 (cardiac microtissues [2]; gene UCHL1, Run 2): 0.2889 | 2^-ΔΔCt of Individual reps, Treated 3 (cardiac microtissues [2]; gene UCHL1, Run 2): 0.1891 | Average 2^-ΔΔCt, Treated (cardiac microtissues [2]; gene UCHL1, Run 2): 0.2267 | Structural cardiotoxin? ([3]; FDA label references heart failure or a decrease in left ventricular ejection fraction): Y | Functional cardiotoxin? ([3]; compound annotation): Y | number of significant differentially expressed genes, 6hr high (cardiac microtissues [4]; 6 hr, high concentration): 108 | number of significant differentially expressed genes, 6hr low (cardiac microtissues [4]; 6 hr, low concentration): 48 | number of significant differentially expressed genes, 48hr high (cardiac microtissues [4]; 48 hr, high concentration): 820 | number of significant differentially expressed genes, 48hr low (cardiac microtissues [4]; 48 hr, low concentration): 637 | number of significant differentially expressed genes, 72hr high (cardiac microtissues [4]; 72 hr, high concentration): 814 | number of significant differentially expressed genes, 72hr low (cardiac microtissues [4]; 72 hr, low concentration): 616
